Results: US6034238A, “Heterocyclic compounds, their preparation and their use as leucocyte adhesion inhibitors and VLA-4-antagonists” (Hoechst Marion Roussel Deutschland GmbH, priority 1997, dated 2000)

Target: T1, interaction between VCAM-1 and VLA-4 (Homo sapiens, UniProt P05556+P13612)
T1 construct: supplied in their natural form as surface molecules on human U937 cells; host or cells: U937 (human)
Experiment: U937/VCAM-1 cell adhesion test (adhesion of U937 cells to hVCAM-1 (1-3)-IgG)
Type: cell-based
Settings: read-out: IC50 (50% inhibition of adhesion)
Description: The test method used for the activity of the compounds of the formula I on the interaction between VCAM-1 and VLA-4 is an assay which is specific for this interaction. The cellular binding components, i.e., the VLA4 integrins, are supplied in their natural form as surface molecules on human U937 cells (ATCC CRL 1593), which belong to the leucocytes group. The specific binding components used are genetically engineered recombinant soluble fusion proteins, consisting of the extracytoplasmatic domain of human VCAM-1 and the constant region of a human immunoglobulin of the subclass IgG1.
Assay for the measurement of the adhesion of U937 cells (ATCC CRL 1593) to hVCAM-1 (1-3)-IgG
1. Preparation of human VCAM-1(1-3)-IgG and human CD4-IgG
A genetic construct for the expression of the extracellular domain of human VCAM-1, associated with the genetic sequence of the heavy chain of human immunoglobulin IgG1 (hinge, CH2 and CH3 regions), from Dr. Brian Seed, Massachusetts General Hospital, Boston, USA (cf. Damle and Aruffo, Proc. NatI. Acad. Sci. USA 1991, 88, 6403-6407) was employed. The soluble fusion protein hVCAM-1 (1-3)-IgG contained the three amino-terminal extracellular immunoglobulin-like domains of human VCAM-1 (Damle and Aruffo, Proc. Natl. Acad. Sci. USA 1991, 88, 6403). CD4-IgG (Zeftimeissl et al., DNA and Cell Biology 1990, 9, 347) served as a fusion protein for negative controls. The recombinant proteins were expressed as soluble proteins after DEAE/dextran-mediated DNA transfection in COS cells (ATCC CRL1651) according to standard procedures (Ausubel et al., Current Protocols in Molecular Biology, John Wiley & Sons, Inc., 1994).
2. Assay for the measurement of the adhesion of U937 cells to hVCAM-1 (1-3)-IgG
2.1 96-well microtiter test plates (Nunc Maxisorb) were incubated at room temperature for 1 hour with 100 μl/well of a goat-anti-human-IgG antibody solution (10 μg/ml in 50 mM tris, pH 9.5). After removal of the antibody solution, washing was carried out once with PBS.
2.2 150 μl/well of a blocking buffer (1% BSA in PBS) was incubated on the plates at room temperature for 0.5 hour. After removal of the blocking buffer, washing was carried out once with PBS.
2.3 100 μl per well of a cell culture supernatant of transfected COS cells was incubated on the plates at room temperature for 1.5 hours. The COS cells were transfected with a plasmid which codes for the three N-terminal immunoglobulin-like domains of VCAM-1, coupled to the Fc part of human IgG1 (hVCAM-1(1--3)-IgG). The content of hVCAM-1 (1-3)-IgG was about 0.5-1 μg/ml. After removal of the culture supernatant washing was carried out once with PBS. […]

T1 sequence (P13612 34-1032): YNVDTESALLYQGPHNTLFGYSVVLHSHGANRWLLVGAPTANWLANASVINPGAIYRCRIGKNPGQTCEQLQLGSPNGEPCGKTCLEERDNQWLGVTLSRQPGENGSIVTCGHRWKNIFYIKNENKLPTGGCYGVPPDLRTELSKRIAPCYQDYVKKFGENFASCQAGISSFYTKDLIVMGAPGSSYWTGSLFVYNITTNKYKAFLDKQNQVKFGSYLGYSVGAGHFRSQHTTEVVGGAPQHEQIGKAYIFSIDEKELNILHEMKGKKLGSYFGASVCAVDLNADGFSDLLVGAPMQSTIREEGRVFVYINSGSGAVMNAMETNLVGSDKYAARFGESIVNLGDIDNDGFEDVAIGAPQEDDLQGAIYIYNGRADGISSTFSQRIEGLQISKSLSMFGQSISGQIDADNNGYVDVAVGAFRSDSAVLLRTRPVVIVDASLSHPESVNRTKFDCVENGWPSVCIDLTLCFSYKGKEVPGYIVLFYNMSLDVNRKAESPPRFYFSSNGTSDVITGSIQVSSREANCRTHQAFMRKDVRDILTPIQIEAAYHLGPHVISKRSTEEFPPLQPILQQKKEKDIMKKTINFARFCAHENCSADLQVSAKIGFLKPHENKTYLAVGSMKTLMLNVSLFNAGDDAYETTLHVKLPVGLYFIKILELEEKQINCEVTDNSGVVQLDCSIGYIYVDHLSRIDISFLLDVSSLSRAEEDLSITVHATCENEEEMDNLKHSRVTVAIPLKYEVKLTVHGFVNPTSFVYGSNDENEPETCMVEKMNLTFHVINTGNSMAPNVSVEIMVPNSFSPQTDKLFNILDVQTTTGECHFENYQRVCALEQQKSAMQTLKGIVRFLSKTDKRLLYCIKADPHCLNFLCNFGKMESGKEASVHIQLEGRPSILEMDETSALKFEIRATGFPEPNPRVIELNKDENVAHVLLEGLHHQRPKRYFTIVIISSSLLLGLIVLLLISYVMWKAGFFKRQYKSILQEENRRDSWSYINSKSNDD
T1 sequence (P05556 21-798): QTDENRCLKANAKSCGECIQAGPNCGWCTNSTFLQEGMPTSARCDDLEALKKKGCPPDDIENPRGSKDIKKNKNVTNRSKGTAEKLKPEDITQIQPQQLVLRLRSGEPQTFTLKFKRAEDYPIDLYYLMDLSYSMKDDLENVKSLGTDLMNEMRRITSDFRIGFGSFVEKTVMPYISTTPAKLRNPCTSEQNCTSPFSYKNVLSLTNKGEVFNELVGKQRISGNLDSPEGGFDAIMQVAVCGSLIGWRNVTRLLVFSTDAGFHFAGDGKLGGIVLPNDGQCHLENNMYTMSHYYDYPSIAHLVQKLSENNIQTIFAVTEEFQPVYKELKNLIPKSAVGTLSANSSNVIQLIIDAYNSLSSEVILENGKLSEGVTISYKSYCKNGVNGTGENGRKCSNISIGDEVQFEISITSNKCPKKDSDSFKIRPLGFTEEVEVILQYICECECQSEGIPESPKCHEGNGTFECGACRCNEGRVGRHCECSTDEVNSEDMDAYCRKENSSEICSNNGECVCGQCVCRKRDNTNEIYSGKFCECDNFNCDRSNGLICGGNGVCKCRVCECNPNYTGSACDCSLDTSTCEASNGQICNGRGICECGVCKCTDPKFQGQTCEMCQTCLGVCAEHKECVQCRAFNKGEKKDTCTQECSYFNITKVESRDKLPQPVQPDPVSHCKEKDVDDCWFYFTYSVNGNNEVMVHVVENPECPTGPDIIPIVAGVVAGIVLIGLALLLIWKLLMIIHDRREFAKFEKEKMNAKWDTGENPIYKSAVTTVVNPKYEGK

| Structure (SMILES) | IC50 [µM] |
| --- | --- |
| CC1(c2ccc(C(=N)N)cc2)C(=O)N(CC(=O)NC[C@H](NC(=O)NCc2ccccc2)C(=O)O)C(=O)N1Cc1ccccc1 (stereo partly drawn) [Example 3, (S)-3-(((R,S)-4-(4-(Amino-imino-methyl)phenyl)-3-benzyl-4-methyl-2,5-dioxoimidazolidin-1-yl)acetylamino)-2-benzylaminocarbonylaminopropionic acid] | 11.5 |
| CC1(c2ccc(C(=N)N)cc2)C(=O)N(CC(=O)NC[C@H](NC(=S)NCc2ccccc2)C(=O)O)C(=O)N1Cc1ccccc1 (stereo partly drawn) [Example 4, (S)-(((R,S)-4-(4-(Amino-imino-methyl)phenyl)-3-benzyl-4-methyl-2,5-dioxoimidazolidin-1-yl)acetylamino)-2-benzylaminothiocarbonylamino-propionic acid] | 10.5 |
| CC1(c2ccc(C(=N)N)cc2)C(=O)N(CC(=O)NC[C@H](NC(=O)OCC23CC4CC(CC(C4)C2)C3)C(=O)O)C(=O)N1Cc1ccccc1 (stereo partly drawn) [Example 1, (S)-3-(((R,S)-4-(4-(Amino-imino-methyl)phenyl)-3-benzyl-4-methyl-2,5-dioxoimidazolidin-1-yl)acetylamino)-2-(1-adamantylmethyloxy-carbonylamino)propionic acid] | 1.25 |
| CC(C)[C@H](NC(=O)[C@H](CC(=O)O)N(C)C(=O)CN1C(=O)N(Cc2ccc3ccccc3c2)C(C)(c2ccc(C(=N)N)cc2)C1=O)C(=O)N1CCOCC1 (stereo partly drawn) [Example 5, ((R,S)-4-(4-(Amino-imino-methyl)phenyl)-3-(2-naphthylmethyl)-4-methyl-2,5-dioxoimidazolidin-1-yl)acetyl-L-(N-methylaspartyl)-L-valine morpholide] | 0.73 |
